Measurements taken from patent publication US20180014541A1, “FUNGICIDAL ACTIVE COMPOUND COMBINATIONS” (ARYSTA LIFESCIENCE CORPORATION, priority 2004, published 2018).
Where two headings read alike, the source gives them in different places.

Tests used:
Pyricularia oryzae [1] = experiment: microbe, parasite or virus in culture; assay type: cell-based; details: 72 h, read-out: % efficacy
Botrytis cinerea = Botrytis cinerea test (in vitro)/microtiter plates, Example 5; assay type: cell-based; details: 72 h, single active compound, spore suspension in PDB, 3 days incubation, ipconazole as commercially available formulation, read-out: % efficacy
Rhizoctonia solani = Rhizoctonia solani test (in vitro)/microtiter plates, Example 2; details: 96 h, read-out: % efficacy
Pyricularia oryzae [2] = experiment: microbe, parasite or virus in culture; assay type: cell-based; details: 120 h, read-out: % efficacy
Coriolus versicolor = experiment: microbe, parasite or virus in culture; details: Trametes versicolor, 72 h, read-out: % efficacy
Pyricularia oryzae [3] = experiment: microbe, parasite or virus in culture; assay type: cell-based; details: 96 h, read-out: % efficacy
Pyricularia oryzae [4] = experiment: microbe, parasite or virus in culture; assay type: cell-based; details: 72 h, read-out: % efficacy; remark: listed apart in the source

With `COCC(=O)N(c1c(C)cccc1C)[C@H](C)C(=O)OC` [mefenoxam, metalaxyl-M] the Emax at 0.3 ppm (Pyricularia oryzae [1]) was 16%.

`CC(C)C1CCC(Cc2ccc(Cl)cc2)C1(O)Cn1cncn1` (centres unmarked) [ipconazole] was tested, and the Emax at 0.003 ppm (Botrytis cinerea) was 3%.

`O=C(Nc1ccccc1-c1ccc(Cl)cc1)c1cccnc1Cl` [boscalid] showed an Emax at 0.1 ppm (Rhizoctonia solani) of 67%.

For `OC(Cn1cncn1)(c1ccc(F)cc1)c1ccccc1F` (centres unmarked) [flutriafol], the Emax at 0.3 ppm (Pyricularia oryzae [2]) was 6%.

`CC1COC(Cn2cncn2)(c2ccc(Oc3ccc(Cl)cc3)cc2Cl)O1` (centres unmarked) [difenoconazole] showed an Emax at 0.03 ppm (Coriolus versicolor) of 93%.

With `CCCCC(C#N)(Cn1cncn1)c1ccc(Cl)cc1` (centres unmarked) [myclobutanil] the Emax at 0.1 ppm (Pyricularia oryzae [3]) was 4%.

For `C=CCNC(=O)c1c([Si](C)(C)C)sc(C)c1C` [silthiofam], the Emax at 0.1 ppm (Pyricularia oryzae [4]) was 1%.

`CO/N=C(/C1=NOCCO1)c1ccccc1Oc1ncnc(Oc2ccccc2Cl)c1F` [fluoxastrobin] was tested, and the Emax at 0.1 ppm (Pyricularia oryzae [4]) was 80%, the Emax at 0.3 ppm (Pyricularia oryzae [1]) was 84% and the Emax at 0.003 ppm (Botrytis cinerea) was 9%. The Emax at 0.1 ppm (Rhizoctonia solani) was 64%, the Emax at 0.3 ppm (Pyricularia oryzae [2]) was 86% and the Emax at 0.03 ppm (Coriolus versicolor) was 24%. It also gave an Emax at 0.1 ppm (Pyricularia oryzae [3]) of 82%.
